The values below come from patent publication US9238039B2, “Pyrazolo[1,5-A]pyrimidines for antiviral treatment” (Gilead Sciences, Inc., priority 2010, dated 2016).

In this assay the test system is RSV strain A2. In words: RSV antiviral cytoprotection assay in Hep2 cells (96-well and 384-well format, Cell TiterGlo read-out). The settings on record: human respiratory syncytial virus; for inhibition at 0.5 µM: HEp-2, 0.5 uM; for EC50: HEp-2, RSV-induced cytopathic effects, Hep2 cells, class symbols. The format is cell-based, Respiratory Syncytial Virus (RSV). Background: ATP-based viability assays read luminescence as a measure of living cells.

Where [1] appears, read: RSV-induced cytopathic effect in Hep2 cells, calculated from fitted dose response curve, normalized to 0% and 100%.

Turning to `Cc1cn2nc([C@@H]3CCCCN3C(=O)c3ccnn3CC(F)(F)F)cc2nc1N1CC[C@H](N)C1` [Compound 401], the EC50 is 0.1 to 100 nM. Further, the inhibition at 0.5 µM under setting [1] is 100%.
The like results for `Cc1cc(N2CC(N)C2)nc2cc([C@@H]3CCCCN3C(=O)c3cc(Cl)ccc3NS(C)(=O)=O)nn12` [Compound 52] were, in that order, 0.1 to 100 nM and 100%.
Regarding `CS(=O)(=O)Nc1ccc(Cl)cc1C(=O)N1CCCC[C@H]1c1cc2nc(N3CC(O)C3)cc(N3CCOC3)n2n1` [Compound 77], the EC50 was in the range of 0.1 to 100 nM. The inhibition at 0.5 µM under setting [1] is 100%.
The like results for `Cc1cn2nc([C@@H]3CCCCN3C(=O)c3cccn3C)cc2nc1N1CC[C@H](N)C1` [Compound 261] were, in that order, 101 to 1000 nM and 81%.
Consider `Cc1cn2nc([C@@H]3CCCCN3C(=O)c3cc(Cl)ccc3NS(C)(=O)=O)cc2nc1N1CCC[C@@H](N)C1` [Compound 231], for which the EC50 fell in the range of 0.1 to 100 nM. The inhibition at 0.5 µM under setting [1] was 98%.
As to `Cc1cn2nc([C@@H]3CCCCN3C(=O)c3ccc(Cn4cccn4)o3)cc2nc1N1CC[C@H](N)C1` [Compound 396], the EC50 was 0.1 to 100 nM. The inhibition at 0.5 µM under setting [1] was 99%.
The like results for `CNC(=O)c1cc(C(=O)N2CCCC[C@H]2c2cc3nc(N4CC[C@H](N)C4)c(C)cn3n2)n(C)n1` [Compound 371] were, in that order, 0.1 to 100 nM and 100%.
The like results for `Cc1cn2nc([C@@H]3CCCCN3C(=O)c3c(C)cccc3NS(C)(=O)=O)cc2nc1N1CCC1` [Compound 225] were, in that order, 0.1 to 100 nM and 100%.
For the compound `CCn1nc(C)cc1C(=O)N1CCCC[C@H]1c1cc2nc(N3CC[C@H](N)C3)c(C)cn2n1` [Compound 302], the EC50 was in the range of 0.1 to 100 nM. Also, the inhibition at 0.5 µM under setting [1] was 100%.
The like results for `Cc1cn2nc([C@@H]3CCCCN3C(=O)c3cc(N)ccc3NS(C)(=O)=O)cc2nc1N1CC(O)C1` [Compound 192] were, in that order, 0.1 to 100 nM and 100%.
The like results for `Cc1cn2nc([C@@H]3CCCCN3C(=O)c3cc(Cl)ccc3NS(C)(=O)=O)cc2nc1NC(=N)N` [Compound 139] were, in that order, 0.1 to 100 nM and 99%.
For `CS(=O)(=O)Nc1ccc(Cl)cc1C(=O)N1CCCC[C@H]1c1cc2nc(N3CC[C@@H](O)C3)ccn2n1` [Compound 51], the EC50 is 0.1 to 100 nM. Besides, under setting [1], the inhibition at 0.5 µM is 98%.
Take `Cc1cn2nc([C@@H]3CCCCN3C(=O)c3cc(Cl)ccc3NS(C)(=O)=O)cc2nc1N[C@H](C)CO` [Compound 149]: the EC50 fell in the range of 0.1 to 100 nM. The inhibition at 0.5 µM under setting [1] was 98%.
As to `CS(=O)(=O)Nc1ccc(Cl)cc1C(=O)N1CCCC[C@H]1c1cc2nc(N3CCC3)cc(N3CC[C@H](N)C3)n2n1` [Compound 227], the EC50 is 0.1 to 100 nM. For the same compound, the inhibition at 0.5 µM under setting [1] was 100%.
In the case of `COc1cc(F)ccc1C(=O)N1CCCC[C@H]1c1cc2nc(N3CC[C@H](N)C3)c(C)cn2n1` [Compound 330], the EC50 is 101 to 1000 nM. The inhibition at 0.5 µM under setting [1] is 68%.
The like results for `Cc1cc(C2CC2)nc2cc([C@@H]3CCCCN3C(=O)C(NC(=O)OC(C)(C)C)c3ccccc3Br)nn12` (stereo partly drawn) [Compound 237] were, in that order, 0.1 to 100 nM and 99%.
As for `CS(=O)(=O)Nc1ccc(Cl)cc1C(=O)N1CCCC[C@H]1c1cc2nc(N3CCC3)cc(N3CC(O)C3)n2n1` [Compound 56], the EC50 fell in the range of 0.1 to 100 nM. For the same compound, the inhibition at 0.5 µM under setting [1] is 100%.
With `Cc1cn2nc([C@@H]3CCCCN3C(=O)c3sccc3Cl)cc2nc1N1CC[C@H](N)C1` [Compound 314], the EC50 lay within 0.1 to 100 nM. Further, the inhibition at 0.5 µM under setting [1] was 100%.
The like results for `Cc1ccc(NS(C)(=O)=O)c(C(=O)N2CCCC(C)C2c2cc3nc(C)c(C)cn3n2)c1` (stereo not drawn) [Compound 36] were, in that order, 0.1 to 100 nM and 90%.
The like results for `Cc1[nH]c2cc([C@@H]3CCCCN3C(=O)c3cc(F)cc(Cl)c3NS(C)(=O)=O)nn2c(=O)c1C` [Compound 127] were, in that order, 0.1 to 100 nM and 99%.
The like results for `Cc1cn2nc([C@@H]3CCCCN3C(=O)c3cc(Cl)ccc3NS(C)(=O)=O)cc2nc1-c1ccccc1` [Compound 134] were, in that order, 0.1 to 100 nM and 98%.
Consider `Cc1ccc(NS(C)(=O)=O)c(C(=O)N2CCCC[C@H]2c2cc3nc(C)c(C)c(C4CC4)n3n2)c1` [Compound 87], for which the EC50 was in the range of 101 to 1000 nM. In addition, the inhibition at 0.5 µM under setting [1] was 84%.
In the case of `Cc1cn2nc([C@@H]3CCCCN3C(=O)c3cc(Cl)ccc3NS(C)(=O)=O)cc2nc1N1CCN=C1N` [Compound 146], the EC50 was in the range of 0.1 to 100 nM. Besides, the inhibition at 0.5 µM under setting [1] is 99%.
The like results for `CCC(=O)Nc1nonc1C(=O)N1CCCC[C@H]1c1cc2nc(N3CC[C@H](N)C3)c(C)cn2n1` [Compound 372] were, in that order, 101 to 1000 nM and 38%.
The like results for `CS(=O)(=O)Nc1ccc(Cl)cc1C(=O)N1CCCCCC1c1cc2nc(N3CC(N)C3)cc(N3CCOCC3)n2n1` (stereo not drawn) [Compound 178] were, in that order, 0.1 to 100 nM and 100%.
The like results for `Cc1cn2nc([C@@H]3CCCCN3C(=O)c3ccccc3O)cc2nc1N1CC[C@H](N)C1` [Compound 274] were, in that order, 0.1 to 100 nM and 100%.
Turning to `C[C@@H]1CN(c2cc(N3CCC3)nc3cc([C@@H]4CCCCN4C(=O)c4cc(Cl)ccc4NS(C)(=O)=O)nn23)C[C@H](C)O1` [Compound 107], the EC50 was 0.1 to 100 nM. Further, the inhibition at 0.5 µM under setting [1] is 100%.
The like results for `Cc1cccc(C(=O)N2CCCC[C@H]2c2cc3nc(N4CC[C@H](N)C4)c(C)cn3n2)n1` [Compound 273] were, in that order, 0.1 to 100 nM and 100%.
`Cc1ccc(NS(C)(=O)=O)c(C(=O)N2CCCC[C@H]2c2cc3nc(C4CC4)cc(N4CCOCC4)n3n2)c1` [Compound 62]: the EC50 fell in the range of 0.1 to 100 nM. Under setting [1], the inhibition at 0.5 µM was 100%.
As to `Cc1cc(C(=O)N2CCCC[C@H]2c2cc3nc(N4CC[C@H](N)C4)c(C)cn3n2)[nH]n1` [Compound 262], the EC50 fell in the range of 0.1 to 100 nM. The inhibition at 0.5 µM under setting [1] was 100%.
Take `Cc1ccc(O)cc1C(=O)N1CCCC[C@H]1c1cc2nc(N3CC[C@H](N)C3)c(C)cn2n1` [Compound 292]: the EC50 lay within 101 to 1000 nM. The inhibition at 0.5 µM under setting [1] is 59%.
With `Cc1[nH]c2cc([C@@H]3COCCN3C(=O)c3ccccc3NS(C)(=O)=O)nn2c(=O)c1C` [Compound 20, N-{2-[3-(5,6-Dimethyl-7-oxo-4,7-dihydro-pyrazolo[1,5-a]pyrimidin-2-yl)-morpholine-4-carbonyl]-phenyl}-methanesulfonamide], the EC50 was in the range of 1000 to 10000 nM. Moreover, the inhibition at 0.5 µM under setting [1] was 7%. Also, under “HEp-2, 1 uM, RSV-induced cytopathic effect in Hep2 cells, calculated from fitted dose response curve, normalized to 0% and 100%”, the inhibition at 1 µM is 53%.
Regarding `Cc1ccc(NS(C)(=O)=O)c(C(=O)N2Cc3ccccc3C[C@H]2c2cc3nc(C)c(C)c(N(C)C)n3n2)c1` [Compound 34], the EC50 was in the range of 0.1 to 100 nM. In addition, under setting [1], the inhibition at 0.5 µM was 91%.
Consider `Cc1cn2nc([C@@H]3CCCCN3C(=O)c3ccc(Cl)cc3Cl)cc2nc1N1CC[C@H](N)C1` [Compound 390], for which the EC50 is 101 to 1000 nM. Further, the inhibition at 0.5 µM under setting [1] is 86%.
The like results for `Cc1ccc(NS(C)(=O)=O)c(C(=O)N2CCC(C)CC2c2cc3[nH]c(C)c(C)c(=O)n3n2)c1` (stereo not drawn) [Compound 89] were, in that order, 0.1 to 100 nM and 100%.
`Cc1ccc(C(=O)N2CCCC[C@H]2c2cc3nc(N4CC[C@H](N)C4)c(C)cn3n2)c(O)c1` [Compound 293]: the EC50 lay within 101 to 1000 nM. Besides, the inhibition at 0.5 µM under setting [1] is 64%.
The like results for `Cc1cn2nc([C@@H]3CCCCN3C(=O)c3cccnc3N)cc2nc1N1CC[C@H](N)C1` [Compound 275] were, in that order, 0.1 to 100 nM and 100%.
In the case of `Cc1cn2nc([C@@H]3CCCCN3C(=O)c3cc(-c4ccccc4)ccn3)cc2nc1N1CC[C@H](N)C1` [Compound 410], the EC50 lay in the range of 1000 to 10000 nM.
For the compound `Cc1ccc(NS(C)(=O)=O)c(C(=O)N2CCCC[C@H]2c2cc3nc(N4CCC4)cc(N4CCOCC4)n3n2)c1` [Compound 194], the EC50 fell in the range of 0.1 to 100 nM. Moreover, the inhibition at 0.5 µM under setting [1] was 100%.
As to `Cc1ccc(NS(C)(=O)=O)c(C(=O)N2CCCC[C@H]2c2cc3nc(C)c(C)c(-c4ccccc4)n3n2)c1` [Compound 86], the EC50 lay in the range of 0.1 to 100 nM. Under setting [1], the inhibition at 0.5 µM is 99%.
The like results for `Cc1nc2cc([C@@H]3CCCCN3C(=O)c3cc(Cl)ccc3NS(C)(=O)=O)nn2c(N(C)C)c1C` [Compound 99] were, in that order, 0.1 to 100 nM and 99%.
With `Cc1ccc(Cl)cc1C(=O)N1CCCC[C@H]1c1cc2nc(N3CC[C@H](N)C3)c(C)cn2n1` [Compound 335], the EC50 is 0.1 to 100 nM. Besides, the inhibition at 0.5 µM under setting [1] was 99%.
The like results for `Cc1cn2nc([C@@H]3CCCCN3C(=O)c3cc(Cl)ncc3Cl)cc2nc1N1CC[C@H](N)C1` [Compound 395] were, in that order, 0.1 to 100 nM and 100%.
The like results for `C[C@H]1CN(c2cc(N3CCC3)nc3cc([C@@H]4CCCCN4C(=O)c4cc(Cl)ccc4NS(C)(=O)=O)nn23)CCN1` [Compound 155] were, in that order, 0.1 to 100 nM and 100%.
The like results for `CS(=O)(=O)Nc1ccc(Cl)cc1C(=O)N1CCCC[C@H]1c1cc2nc(N3CCC3)cc(N3CCN(CC(F)(F)F)CC3)n2n1` [Compound 84] were, in that order, 0.1 to 100 nM and 100%.
For the compound `Cc1cn2nc([C@@H]3CCCCN3C(=O)c3cn(C)nc3C(F)(F)F)cc2nc1N1CC[C@H](N)C1` [Compound 402], the EC50 was in the range of 0.1 to 100 nM. Under setting [1], the inhibition at 0.5 µM was 99%.
The like results for `Cc1cn2nc([C@@H]3CCCCN3C(=O)c3cc(Cl)ccc3NS(C)(=O)=O)cc2nc1N1C[C@@H](N)C[C@H]1CO` [Compound 211] were, in that order, 0.1 to 100 nM and 100%.
Regarding `Cc1cn2nc([C@@H]3CCCCN3C(=O)c3cc(Cl)ccc3NS(C)(=O)=O)cc2nc1N1CC(N)C(C#N)C1` (stereo partly drawn) [Compound 186], the EC50 lay in the range of 0.1 to 100 nM. The inhibition at 0.5 µM under setting [1] is 100%.

The inhibition is how much of the control response was suppressed. The term EC50 denotes the midpoint of the concentration-response curve.
